This is an account of results in article PMC6054517, “Design and synthesis of novel oridonin analogues as potent anticancer agents” (Journal of Enzyme Inhibition and Medicinal Chemistry, 2018).

One experiment concerns Hela. Description: MTT antiproliferative assay, HeLa cells. In kind it is cell-based, human. The settings on record: for IC50: Homo sapiens, HeLa, MTT, 48 h, means ± SD, n = 3; for Selectivity index Hela: IC50 on normal cells (L02)/IC50 on tumour cells (Hela). The text has this: (§1) Human gastric cancer (AGS), human differentiation of advanced gastric cancer (MGC803), human colorectal cancer (HCT116), human lung cancer (A549), human hepatocellular carcinoma (Bel7402) and human cervical cancer (HeLa) cell lines were obtained from the State Key Laboratory of Natural Resources and Functional Molecules of the Changbai Mountain (Yanbian University) and maintained in Dulbecco’s modified Eagle’s medium and RPMI Media 1640 (RPMI1640), supplemented with 10% foetal bovine serum 100 IU/ml penicillin, […] and 2 mmol/l L-glutamine (Sigma) at 37 °7 in a humidified atmosphere containing 5% CO2.
(§2) All six human cancer cell lines and normal L02 cells were seeded in 96-well plates at the appropriate densities to ensure exponential growth throughout the experimental period (9 × 10^3 cells per well) and then allowed to adhere for 24 h. The cells were then treated for 48 h with four serial dilutions (100, 50, 10, and 1 µM) of each compound. 5-Fluorouracil (5-FU) was used as the positive control. After incubation for 48 h, 10 µl MTT solution was added to each well to give a final concentration of 2 mg ml^−1. The plates were then incubated for further 4 h. After incubation, the MTT solution was removed and 150 µl DMSO was added to each well to solubilise the formed product. To ensure complete solubilisation, the plates were shaken vigorously for 10 min at room temperature. The optometric density (OD) was read on a microplate reader (ELx800, BioTek, Highland Park, Winooski, VT) at a wavelength of 492 nm and the data were subsequently analysed. The percentage of cell growth inhibition was calculated from the following equation: inhibitory rate (%) = [1–(ODtreated–ODblank)/(ODcontrol–ODblank)] × 100.
(§3) The MTT assay was performed using a standard protocol.

Experiment [1] concerns AGS, MGC803, Bel7402, HCT116, A549, and HeLa. In words: MTT assay, overall statement on six tumour cell lines. It counts as cell-based, human. To be noted: six cancer cell lines.
Description: as §1, §2, §3
For orientation: Tetrazolium assays rely on reduction of a dye to a coloured formazan, in cell work by metabolically active cells.

A further experiment deals with AGS. Description: MTT antiproliferative assay, AGS cells. In kind it is cell-based, human. The settings on record: for Selectivity index AGS: IC50 on normal cells (L02)/IC50 on tumour cells (AGS); for IC50: MTT, 48 h, means ± SD, n = 3.
Description: as §1, §2, §3

The test system of the next experiment is A549. In words: MTT antiproliferative assay, A549 cells. It counts as cell-based, human. The settings on record: for IC50: Homo sapiens, A549, MTT, 48 h, means ± SD, n = 3; for Selectivity index A549: IC50 on normal cells (L02)/IC50 on tumour cells (A549).
Description: as §1, §2, §3

The subject of the next experiment is L02. Description: MTT assay on normal cell line L02. In kind it is cell-based. To be noted: normal human liver cell line L02, MTT, 48 h. How it is done:
as §2, with “5-Fluorouracil (5-FU) was used as the positive control.” left out
Lack of selective cytotoxicity is the main factor that restricts the dose of most conventional chemotherapeutic agents. […] Selectivity indexes between cancer cells and L-02 cells were calculated.

The subject of experiment [2] is HCT116. Description: MTT antiproliferative assay, HCT116 cells. In kind it is cell-based, human. The settings on record: for IC50: MTT, 48 h, means ± SD, n = 3; for Selectivity index HCT116: IC50 on normal cells (L02)/IC50 on tumour cells (HCT116).
Description: as §1, §2, §3

In another experiment the test system is Bel7402. Description: MTT antiproliferative assay, Bel7402 cells. It counts as cell-based, human. The settings on record: for IC50: Homo sapiens, Bel-7402, MTT, 48 h, means ± SD, n = 3; for Selectivity index Bel7402: IC50 on normal cells (L02)/IC50 on tumour cells (Bel7402).
Description: as §1, §2, §3

Another experiment has as its system MGC803. In words: MTT antiproliferative assay, MGC803 cells. To be noted: for IC50: Homo sapiens, MGC-803, MTT, 48 h, means ± SD, n = 3; for Selectivity index MGC803: IC50 on normal cells (L02)/IC50 on tumour cells (MGC803). In kind it is cell-based, human.
Description: as §1, §2, §3

Experiment [3] relates to HCT116 cells. Description: Apoptosis by flow cytometry (annexin V-FITC/PI). In kind it is cell-based, human. To be noted: HCT116, 5 µM, 48 h; vehicle 6.20%. On the procedure:
Apoptosis was detected using an Apoptosis Detection Kit (Invitrogen, Eugene, OR). Briefly, cells were plated in six-well plates (1.0 × 10^6 cells per well) and incubated at 37 °C for 12 h. Exponentially growing cells were then incubated with compound 2p at different concentrations (0 , 5.0 µM) and oridonin at 5.0 µM. Following 48 h of incubation, the cells were collected and washed twice with PBS, once with 1 × binding buffer, and then stained with 5 µM annexin V-FITC and 2.5 µM PI in 1 × binding buffer for 30 min at room temperature in the dark. Apoptotic cells were quantified using a FACSCalibur flow cytometer with the Cell Quest software (Becton-Dickinson).
Because compound 2p arrested the cells in the G2 phase, we investigated whether it also causes apoptosis. HCT116 cells were treated with the vehicle, compound 2p (5 µM), or oridonin (5 µM) for 48 h, and then stained with annexin V-FITC and PI.

For experiment [4], the system named is HCT116 cells. Description: Cell cycle distribution by flow cytometry (PI). In kind it is cell-based, human. To be noted: HCT116, 5 μM, 48 h; control 19.35%. How it is done: HCT116 cells were plated in six-well plates (1.0 × 10^6 cells per well) and incubated at 37 °7 for 12 h. Exponentially growing cells were then incubated with compound 2p at different concentrations (0 , 5.0 µM) and oridonin at 5.0 µM. After 48 h, the cells were centrifuged at 1000 rpm for 10 min and then fixed in 70% ethanol at −20 °0 for at least 24 h. The cells were subsequently resuspended in phosphate-buffered saline (PBS) containing 50 µg ml^−1 RNase A and 50 µg ml^−1 PI. The cellular DNA content for the cell cycle distribution analysis was measured by flow cytometry using a FACSCalibur flow cytometer with Cell Quest software (Becton-Dickinson, Franklin Lakes, NJ), plotting at least 30,000 events per sample. The percentage of cells in the G1, S and G2 phases of the cell cycle were determined using the ModFit LT V4.0 software package (Verity Software, Topsham, ME).
Numerous cytotoxic compounds exert their antiproliferative effect by inducing cell cycle arrest (at a particular cell cycle checkpoint), apoptosis, or both[25]. These mechanisms are considered to be effective anticancer strategies. We used fluorescence-activated cell sorting analysis to explore the mechanism by which compound 2p reduced the viability of HCT116 cells. Compound 2p and oridonin were selected and tested against HCT116 cell lines at a concentration of 5 µM.
For orientation: Flow cytometry measures light scatter and fluorescence of single cells or particles in a stream.

For experiment [5], the system named is HCT116. To be noted: cited from earlier work.

Each structure is given as a SMILES string. Like-named read-outs stand apart in the source and are kept apart here.

For the compound `COc1ccc(C=C2C(=O)C34C(O)C2CCC3C23COC4(O)C(O)C2C(C)(C)CCC3O)c(OC)c1` [Compound 2l, (1S,4aR,5S,6S,6aR,9S,11aS,14R,E)-8-(2,4-dimethoxybenzylidene)-1,5,6,14-tetrahydroxy-4,4-dimethyldecahydro-1H-6,11b-(epoxymethano)-6a,9-methanocyclohe-pta[a]naphthalen-7(8H)-one], the IC50 (as a rule, the point on the concentration scale where inhibition reaches its midpoint) with Hela came to 14.3 ± 2.04 µM; in the experiment with AGS it was 5.85 ± 1.55 µM; in the experiment with A549, 5.12 ± 0.49 µM; in the experiment with L02, 7.15 ± 1.36 µM; with HCT116 [2] (Homo sapiens, HCT-116, 48 h) it was 2.28 ± 0.54 µM; in the experiment with Bel7402, 2.41 ± 0.37 µM. The compound also came in with an IC50 in the experiment on MGC803 of 3.49 ± 0.44 µM. Moreover, the “antiproliferative activities against the six tumour cell lines (in words)” value in experiment [1] is reported as “more potent antiproliferative activities in vitro than oridonin”. Besides, the “Selectivity index AGS” value with AGS turned out to be 1.22. In addition, the “Selectivity index A549” value in the experiment on A549 came out at 1.40. The “Selectivity index HCT116” value in the experiment on HCT116 [2] is reported as 3.14. In the experiment with Bel7402, the “Selectivity index Bel7402” value is recorded as 2.97. For the same compound, in the experiment on MGC803, the “Selectivity index MGC803” value came out at 2.05.

Consider `CC(C)=CCOc1ccc(/C=C2/C(=O)[C@]34[C@H](O)[C@H]2CC[C@H]3C23CO[C@]4(O)[C@@H](O)[C@@H]2C(C)(C)CC[C@@H]3O)cc1` [Compound 2p, (1S,4aR,5S,6S,6aR,9S,11aS,14R,E)-1,5,6,14-tetrahydroxy-4,4-dimethyl-8-(4-((3-methylbut-2-en1yl)oxy)benzylidene)decahydro-1H-6,11b-(epoxymethano)-6a,9-methanocyclohepta[a]naphthalen-7(8H)-one], for which the IC50 worked out at 6.33 ± 0.96 µM in the experiment on Hela; 4.09 ± 0.65 µM in the experiment on AGS (Homo sapiens, AGS); 5.9 ± 0.52 µM in the experiment on A549; 6.88 ± 1.12 µM with L02; 1.08 µM in the experiment on HCT116 [2] (Homo sapiens, HCT-116, 48 h); 1.05 ± 0.23 µM with HCT116 [2]. Also, the IC50 in the experiment with Bel7402 was determined as 3.21 ± 0.58 µM; with MGC803 it was 4.54 ± 0.94 µM. In addition, the “Selectivity index Hela” value in the experiment with Hela was 1.09. The “antiproliferative activities against the six tumour cell lines (in words)” value in experiment [1] is “more potent antiproliferative activities in vitro than oridonin”. Besides, the “percentage of total apoptotic cells (right quadrants, Q2 + Q3)” value in the experiment on HCT116 cells [3] came to 60.94%. Moreover, the “Selectivity index AGS” value in the experiment with AGS stood at 3.28. Moreover, in the experiment on A549, the “Selectivity index A549” value was determined as 1.17. Moreover, the “percentage of G2 cell population” value with HCT116 cells [4] was determined as 41.46%. Moreover, the “Selectivity index HCT116” value in the experiment with HCT116 [2] amounted to 6.55. In the experiment on HCT116 [2] (L02 versus HCT116), the “IC50 value in L02 cells relative to that in HCT116 cells (selectivity)” value was 6.5 fold. In addition, in the experiment with MGC803, the “Selectivity index MGC803” value worked out at 0.75.

Regarding `CC(C)=CCOc1ccc(C(=O)/C=C/c2ccc(Cl)cc2)c(O)c1` [Compound 4], in the experiment on HCT116 [5], the IC50 is 0.89 µM.

Take `C=C1C(=O)[C@]23[C@H](O)[C@H]1CC[C@H]2[C@@]12CO[C@]3(O)[C@@H](O)[C@@H]1C(C)(C)CC[C@@H]2O` [Oridonin]: the IC50 with Hela came to 15 ± 2.01 µM; in the experiment on AGS (Homo sapiens, AGS), 8.35 ± 0.41 µM; in the experiment with A549 it was 24.7 ± 2.11 µM; in the experiment with L02 it was 6.97 ± 0.98 µM; in the experiment on HCT116 [2] (Homo sapiens, HCT-116, 48 h), 6.84 ± 0.98 µM; in the experiment with Bel7402, 9.59 ± 1.19 µM. Moreover, half-maximal inhibition in the experiment on MGC803 (IC50) was put at 9.18 ± 1.01 µM. Further, in the experiment with Hela, the “Selectivity index Hela” value is on record as 0.46. Moreover, in the experiment on HCT116 cells [3], the “percentage of total apoptotic cells (right quadrants, Q2 + Q3)” value worked out at 24.84%. In addition, the “Selectivity index AGS” value in the experiment with AGS is given as 0.83. Moreover, the “Selectivity index A549” value in the experiment on A549 stood at 0.28. Further, the “percentage of G2 cell population” value in the experiment with HCT116 cells [4] is listed as 37.80%. In addition, in the experiment on HCT116 [2], the “Selectivity index HCT116” value was 1.02. Moreover, the “Selectivity index Bel7402” value in the experiment on Bel7402 stood at 0.73. Besides, the “Selectivity index MGC803” value in the experiment on MGC803 came out at 0.76.
